Source: publication PMC10294832, “Investigation of Naphthyl–Polyamine Conjugates as Antimicrobials and Antibiotic Enhancers” (Antibiotics, 2023)
In brackets after ≈: the same amount, converted by molar mass. Several values for one entry are separate records, joined by “and”; a condition that tells them apart may be missing. Equal values may be shown once. Read-outs that look alike come from different tables or passages of the source.

How the values were obtained:
[1] = system: S. aureus (ATCC 25,923 or ATCC 29213); experiment: Antimicrobial MIC, S. aureus; type: cell-based, Staphylococcus aureus; conditions: Staphylococcus aureus, mean (n = 3)
Procedure: (§1) The susceptibility of bacterial strains S. aureus (ATCC 25,923 or 29213), E. coli (ATCC 25922), and P. aeruginosa (ATCC 27853) to antibiotics and compounds was determined according to previously reported protocols. Additional antimicrobial evaluation against MRSA (ATCC 43300), Klebsiella pneumoniae (ATCC 700603), Acinetobacter baumannii (ATCC 19606), Candida albicans (ATCC 90028), and Cryptococcus neoformans (ATCC 208821) was undertaken at the Community for Open Antimicrobial Drug Discovery at The University of Queensland (Australia) according to their standard protocols as reported previously.

[2] = system: A. baumannii (ATCC 19606); experiment: Antimicrobial MIC, A. baumannii; type: cell-based, Acinetobacter baumannii; conditions: Acinetobacter baumannii, ATCC19606, A. baumannii (ATCC 19606); mean (n = 2)
Procedure: as §1

[3] = system: E. coli (ATCC 25922); experiment: Antimicrobial MIC, E. coli; type: cell-based, Escherichia coli; conditions: Escherichia coli, ATCC25922, E. coli (ATCC 25922); mean (n = 2)
Procedure: as §1

[4] = system: MRSA (ATCC 43300); experiment: Antimicrobial MIC, MRSA; type: cell-based, methicillin-resistant Staphylococcus aureus; conditions: Staphylococcus aureus, read-out: MIC MRSA
Procedure: as §1

[5] = system: C. albicans (ATCC 90028); experiment: Antifungal MIC, C. albicans; type: cell-based; conditions: Candida albicans, ATCC90028, mean (n = 2)
Procedure: as §1

[6] = system: C. neoformans (ATCC 208821); experiment: Antifungal MIC, C. neoformans; type: cell-based, Cryptococcus neoformans; conditions: Cryptococcus neoformans, ATCC208821, C. neoformans (ATCC 208821); mean (n = 2)
Procedure: as §1

[7] = system: P. aeruginosa (ATCC 27853); experiment: Enhancement of doxycycline activity; type: cell-based, Pseudomonas aeruginosa; conditions: for Dox/P.a: concentration required to restore doxycycline activity (combination MIC): doxycycline fixed at 4.5 µM (2 µg/mL); for Dox/P.a: concentration required to restore doxycycline activity (combination MIC) / Concentration of test compound required to restore doxycycline activity: P. aeruginosa (ATCC 27853); for Dox/P.a fold change: ratio between intrinsic MIC of test compound and combination MIC, doxycycline 4.5 µM, P. aeruginosa
[8] = system: P. aeruginosa (PAO1 or ATCC 27853); experiment: Antimicrobial MIC, P. aeruginosa; type: cell-based; conditions: Pseudomonas aeruginosa
Procedure: as §1

[9] = system: human red blood cells; experiment: Hemolytic assay; type: cell-based; conditions: concentration at 10% hemolytic activity on human red blood cells; mean (n = 2)
Procedure: Hemolysis assays were conducted using the protocols previously reported.

[10] = system: E. coli (ATCC 25922); experiment: Enhancement of erythromycin activity; type: cell-based, Escherichia coli; conditions: for Eryth/E.c: concentration required to restore erythromycin activity (combination MIC): erythromycin fixed at 10.9 µM (8 µg/mL), E. coli (ATCC 25922); for Eryth/E.c fold change: ratio between intrinsic MIC of test compound and combination MIC, erythromycin 10.9 µM, E. coli
Procedure: Restoring enhancer concentrations were determined using previously reported protocols.

[11] = system: K. pneumoniae (ATCC 700603); experiment: Antimicrobial MIC, K. pneumoniae; type: cell-based; conditions: Klebsiella pneumoniae, ATCC700603, mean (n = 2)
Procedure: as §1

[12] = Cytotoxicity assay; type: cell-based, human; conditions: human, HEK293 human embryonic kidney cells, concentration at 50% cytotoxicity on HEK293 cells; mean (n = 2)
Procedure: Cytotoxicity assays were conducted using the protocols previously reported.

[13] = MRSA (ATCC 43300), mean (n = 2)
[14] = P. aeruginosa (PAO1 or ATCC 27853), mean (n = 3), read-out: MIC P. a

MIC [1] | MIC [2] | MIC [3] | MIC [4, 13] | MIC [5] | MIC [6] | Dox/P.a: concentration required to restore doxycycline activity (combination MIC) [7] | MIC [8, 14] | Eryth/E.c: concentration required to restore erythromycin activity (combination MIC) [10] | MIC [11] | MIC ([8]; antibiotic alone, P. aeruginosa, read-out: intrinsic MIC against P. aeruginosa) | Compound | Dox/P.a fold change [7] | Hemolysis HC10 [9] | Eryth/E.c fold change [10] | IC50 [12] | Concentration of test compound required to restore doxycycline activity ([7]; doxycycline concentration 2 µg/mL) | Concentration of test compound required to restore doxycycline activity ([7]; doxycycline concentration 4 µg/mL) | Concentration of test compound required to restore doxycycline activity ([7]; doxycycline concentration 6 µg/mL) | Concentration of test compound required to restore doxycycline activity ([7]; doxycycline concentration 8 µg/mL) | MIC [4]
107 µM | > 34.2 µM | > 107 µM | > 34.2 µM | > 34.2 µM | > 34.2 µM | > 107 µM | > 107 µM | 107 µM | > 34.2 µM | – | O=C(CCC(=O)Nc1cccc2ccccc12)NCCCNCCCCCCCCNCCCNC(=O)CCC(=O)Nc1cccc2ccccc12.O=C(O)C(F)(F)F.O=C(O)C(F)(F)F [Compound 18d, N^1,N^8-Bis(3-(4-(naphthalen-1-ylamino)-4-oxobutanamido)propyl)octane-1,8-diaminium 2,2,2-trifluoroacetate] | 1 fold | >34.2 µM | 1 fold | > 34.2 µM | – | – | – | – | –
> 200 µM | > 35.2 µM | 50 µM | > 35.2 µM | > 35.2 µM | 35.2 µM | 25 µM | > 200 µM | 50 µM | > 35.2 µM | – | O=C(CCC(=O)Nc1ccc2ccccc2c1)NCCCNCCCCCCNCCCNC(=O)CCC(=O)Nc1ccc2ccccc2c1.O=C(O)C(F)(F)F.O=C(O)C(F)(F)F [Compound 20b, N^1,N^6-Bis(3-(4-(naphthalen-2-ylamino)-4-oxobutanamido)propyl)hexane-1,6-diaminium 2,2,2-trifluoroacetate] | > 8 fold | >35.2 µM | 1 fold | > 35.2 µM | – | – | – | – | –
57 µM | > 36.3 µM | 227 µM | 18.2 µM | > 36.3 µM | > 36.3 µM | 28 µM | 568 µM | – | > 36.3 µM | – | O=C(CCC(=O)Nc1ccc2ccccc2c1)NCCCNCCCCNCCCNC(=O)CCC(=O)Nc1ccc2ccccc2c1.O=C(O)C(F)(F)F.O=C(O)C(F)(F)F [Compound 20a, N^1,N^4-Bis(3-(4-(naphthalen-2-ylamino)-4-oxobutanamido)propyl)butane-1,4-diaminium 2,2,2-trifluoroacetate] | 20 fold | >36.3 µM | – | > 36.3 µM | 28.4 µM | 14.2 µM | 14.2 µM | 3.5 µM | –
568 µM | > 36.3 µM | 568 µM | > 36.3 µM | > 36.3 µM | > 36.3 µM | 568 µM | 568 µM | 568 µM | > 36.3 µM | – | O=C(CCC(=O)Nc1cccc2ccccc12)NCCCNCCCCNCCCNC(=O)CCC(=O)Nc1cccc2ccccc12.O=C(O)C(F)(F)F.O=C(O)C(F)(F)F [Compound 18a, N^1,N^4-Bis(3-(4-(naphthalen-1-ylamino)-4-oxobutanamido)propyl)butane-1,4-diaminium 2,2,2-trifluoroacetate] | 1 fold | – | 1 fold | – | – | – | – | – | –
> 200 µM | > 35.2 µM | > 200 µM | > 35.2 µM | > 35.2 µM | > 35.2 µM | 100 µM | > 200 µM | 200 µM | > 35.2 µM | – | O=C(CCC(=O)Nc1cccc2ccccc12)NCCCNCCCCCCNCCCNC(=O)CCC(=O)Nc1cccc2ccccc12.O=C(O)C(F)(F)F.O=C(O)C(F)(F)F [Compound 18b, N^1,N^6-Bis(3-(4-(naphthalen-1-ylamino)-4-oxobutanamido)propyl)hexane-1,6-diaminium 2,2,2-trifluoroacetate] | > 2 fold | >35.2 µM | 1 fold | > 35.2 µM | – | – | – | – | –

Further lines, the molecule ahead of its results:

Compound | MIC [1] | MIC [2] | MIC [3] | MIC [4, 13] | MIC [5] | MIC [6] | Dox/P.a: concentration required to restore doxycycline activity (combination MIC) [7] | MIC [8, 14] | Eryth/E.c: concentration required to restore erythromycin activity (combination MIC) [10] | MIC [11] | MIC ([8]; antibiotic alone, P. aeruginosa, read-out: intrinsic MIC against P. aeruginosa) | Dox/P.a fold change [7] | Hemolysis HC10 [9] | Eryth/E.c fold change [10] | IC50 [12] | Concentration of test compound required to restore doxycycline activity ([7]; doxycycline concentration 2 µg/mL) | Concentration of test compound required to restore doxycycline activity ([7]; doxycycline concentration 4 µg/mL) | Concentration of test compound required to restore doxycycline activity ([7]; doxycycline concentration 6 µg/mL) | Concentration of test compound required to restore doxycycline activity ([7]; doxycycline concentration 8 µg/mL) | MIC [4]
CN[C@H](CC(C)C)C(=O)N[C@H]1C(=O)N[C@@H](CC(N)=O)C(=O)N[C@H]2C(=O)N[C@H]3C(=O)N[C@H](C(=O)N[C@H](C(=O)O)c4cc(O)cc(O)c4-c4cc3ccc4O)[C@H](O)c3ccc(c(Cl)c3)Oc3cc2cc(c3O[C@@H]2O[C@H](CO)[C@@H](O)[C@H](O)[C@H]2O[C@H]2C[C@](C)(N)[C@H](O)[C@H](C)O2)Oc2ccc(cc2Cl)[C@H]1O [vancomycin, reference compound] | – | – | – | – | – | – | – | – | – | – | – | – | – | – | – | – | – | – | – | 0.7 µM (≈ 1.01 µg/mL)
O=C(NCCCNCCCCCCCCNCCCNC(=O)c1cccc2ccccc12)c1cccc2ccccc12.O=C(O)C(F)(F)F.O=C(O)C(F)(F)F [Compound 17d, N^1,N^8-Bis(3-(1-naphthamido)propyl)octane-1,8-diaminium 2,2,2-trifluoroacetate] | 50 µM | > 40.3 µM | 100 µM | > 40.3 µM | > 40.3 µM | > 40.3 µM | – | > 100 µM | 31.5 µM | > 40.3 µM | – | – | >40.3 µM | 3 fold | > 40.3 µM | – | – | – | – | –
C[C@H]1c2cccc(O)c2C(=O)C2=C(O)[C@]3(O)C(=O)C(C(N)=O)=C(O)[C@@H](N(C)C)[C@@H]3[C@@H](O)[C@@H]21 [doxycycline, reference compound] | – | – | – | – | – | – | – | – | – | – | 40 µg/mL and 90 µM | – | – | – | – | – | – | – | – | –
O=C(NCCCNCCCCCCCCCCCCNCCCNC(=O)c1cccc2ccccc12)c1cccc2ccccc12.O=C(O)C(F)(F)F.O=C(O)C(F)(F)F [Compound 17f, N^1,N^12-Bis(3-(1-naphthamido)propyl)dodecane-1,12-diaminium 2,2,2-trifluoroacetate] | 25 µM | 0.29 µM | 100 µM | 0.29 µM | > 37.6 µM | 0.29 µM | 300 µM | 300 µM | 50 µM | > 37.6 µM | – | 1 fold | >37.6 µM | 2 fold | > 37.6 µM | – | – | – | – | –
O=C(NCCCNCCCCCCCNCCCNC(=O)c1cccc2ccccc12)c1cccc2ccccc12.O=C(O)C(F)(F)F.O=C(O)C(F)(F)F [Compound 17c, N^1,N^7-Bis(3-(1-naphthamido)propyl)heptane-1,7-diaminium 2,2,2-trifluoroacetate] | 256 µM | > 41 µM | 256 µM | > 41 µM | > 41 µM | > 41 µM | 64 µM | > 256 µM | 64 µM | > 41 µM | – | – | >41.0 µM | 4 fold | > 41 µM | – | – | – | – | –
OC(Cn1cncn1)(Cn1cncn1)c1ccc(F)cc1F [fluconazole, reference compound] | – | – | – | – | 0.4 µM (≈ 0.123 µg/mL) | 26 µM (≈ 7.96 µg/mL) | – | – | – | – | – | – | – | – | – | – | – | – | – | –
[H]/N=C(/N)N[C@H]1[C@H](O)[C@@H](O)[C@H](O[C@@H]2O[C@@H](C)[C@](O)(C=O)[C@H]2O[C@@H]2O[C@@H](CO)[C@H](O)[C@@H](O)[C@@H]2NC)[C@@H](N/C(N)=N\[H])[C@@H]1O [streptomycin, reference compound] | 21.5 µM (≈ 12.5 µg/mL) | – | – | – | – | – | – | 21.5 µM (≈ 12.5 µg/mL) | – | – | – | – | – | – | – | – | – | – | – | –
O=C(N[C@H](CO)[C@H](O)c1ccc([N+](=O)[O-])cc1)C(Cl)Cl [chloramphenicol, reference compound] | 1.5 to 3 µM (≈ 0.485 to 0.969 µg/mL) | – | – | – | – | – | – | – | – | – | – | – | – | – | – | – | – | – | – | –
CC/C(=C(\c1ccccc1)c1ccc(OCCN(C)C)cc1)c1ccccc1 [tamoxifen, reference compound] | – | – | – | – | – | – | – | – | – | – | – | – | – | – | 24 µM | – | – | – | – | –
